Measured values reported in patent US20160289186A1, “FLUOROMETHYL-SUBSTITUTED PYRROLE CA[…]” (Grunenthal GmbH, priority 2013, published 2016).

Target: T1, Human CaV2.2 channels (Homo sapiens, UniProt Q00975)
T1 construct: expressed in transfected cells; host or cells: HEK293
Assay: Fluorescent (FLIPR) assay for CaV2.2 channels using potassium depolarization to induce channel opening
Format: cell-based
Details: 3 μM compound; 30 mM KCl assay buffer (inactivated channel state); HEK293 cells stably expressing human CaV2.2; read-out: Activity Category: %-Inhib (CaV2.2) @3 μM @30 mM KCl
How it was run: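 HEK293 cells stably co-expressing human CaV2.2 with α2δ and β subunits plus Kir2.3, Fluo-4 loaded; compounds preincubated 15 min at 25 °C in 1 mM or 30 mM KCl buffer (inactivated state), pH 7.4. Depolarized by KCl addition; baseline-normalized peak fluorescence (ex 480/em 535 nm) gave inhibition.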

T1 sequence (Q00975 whole entry): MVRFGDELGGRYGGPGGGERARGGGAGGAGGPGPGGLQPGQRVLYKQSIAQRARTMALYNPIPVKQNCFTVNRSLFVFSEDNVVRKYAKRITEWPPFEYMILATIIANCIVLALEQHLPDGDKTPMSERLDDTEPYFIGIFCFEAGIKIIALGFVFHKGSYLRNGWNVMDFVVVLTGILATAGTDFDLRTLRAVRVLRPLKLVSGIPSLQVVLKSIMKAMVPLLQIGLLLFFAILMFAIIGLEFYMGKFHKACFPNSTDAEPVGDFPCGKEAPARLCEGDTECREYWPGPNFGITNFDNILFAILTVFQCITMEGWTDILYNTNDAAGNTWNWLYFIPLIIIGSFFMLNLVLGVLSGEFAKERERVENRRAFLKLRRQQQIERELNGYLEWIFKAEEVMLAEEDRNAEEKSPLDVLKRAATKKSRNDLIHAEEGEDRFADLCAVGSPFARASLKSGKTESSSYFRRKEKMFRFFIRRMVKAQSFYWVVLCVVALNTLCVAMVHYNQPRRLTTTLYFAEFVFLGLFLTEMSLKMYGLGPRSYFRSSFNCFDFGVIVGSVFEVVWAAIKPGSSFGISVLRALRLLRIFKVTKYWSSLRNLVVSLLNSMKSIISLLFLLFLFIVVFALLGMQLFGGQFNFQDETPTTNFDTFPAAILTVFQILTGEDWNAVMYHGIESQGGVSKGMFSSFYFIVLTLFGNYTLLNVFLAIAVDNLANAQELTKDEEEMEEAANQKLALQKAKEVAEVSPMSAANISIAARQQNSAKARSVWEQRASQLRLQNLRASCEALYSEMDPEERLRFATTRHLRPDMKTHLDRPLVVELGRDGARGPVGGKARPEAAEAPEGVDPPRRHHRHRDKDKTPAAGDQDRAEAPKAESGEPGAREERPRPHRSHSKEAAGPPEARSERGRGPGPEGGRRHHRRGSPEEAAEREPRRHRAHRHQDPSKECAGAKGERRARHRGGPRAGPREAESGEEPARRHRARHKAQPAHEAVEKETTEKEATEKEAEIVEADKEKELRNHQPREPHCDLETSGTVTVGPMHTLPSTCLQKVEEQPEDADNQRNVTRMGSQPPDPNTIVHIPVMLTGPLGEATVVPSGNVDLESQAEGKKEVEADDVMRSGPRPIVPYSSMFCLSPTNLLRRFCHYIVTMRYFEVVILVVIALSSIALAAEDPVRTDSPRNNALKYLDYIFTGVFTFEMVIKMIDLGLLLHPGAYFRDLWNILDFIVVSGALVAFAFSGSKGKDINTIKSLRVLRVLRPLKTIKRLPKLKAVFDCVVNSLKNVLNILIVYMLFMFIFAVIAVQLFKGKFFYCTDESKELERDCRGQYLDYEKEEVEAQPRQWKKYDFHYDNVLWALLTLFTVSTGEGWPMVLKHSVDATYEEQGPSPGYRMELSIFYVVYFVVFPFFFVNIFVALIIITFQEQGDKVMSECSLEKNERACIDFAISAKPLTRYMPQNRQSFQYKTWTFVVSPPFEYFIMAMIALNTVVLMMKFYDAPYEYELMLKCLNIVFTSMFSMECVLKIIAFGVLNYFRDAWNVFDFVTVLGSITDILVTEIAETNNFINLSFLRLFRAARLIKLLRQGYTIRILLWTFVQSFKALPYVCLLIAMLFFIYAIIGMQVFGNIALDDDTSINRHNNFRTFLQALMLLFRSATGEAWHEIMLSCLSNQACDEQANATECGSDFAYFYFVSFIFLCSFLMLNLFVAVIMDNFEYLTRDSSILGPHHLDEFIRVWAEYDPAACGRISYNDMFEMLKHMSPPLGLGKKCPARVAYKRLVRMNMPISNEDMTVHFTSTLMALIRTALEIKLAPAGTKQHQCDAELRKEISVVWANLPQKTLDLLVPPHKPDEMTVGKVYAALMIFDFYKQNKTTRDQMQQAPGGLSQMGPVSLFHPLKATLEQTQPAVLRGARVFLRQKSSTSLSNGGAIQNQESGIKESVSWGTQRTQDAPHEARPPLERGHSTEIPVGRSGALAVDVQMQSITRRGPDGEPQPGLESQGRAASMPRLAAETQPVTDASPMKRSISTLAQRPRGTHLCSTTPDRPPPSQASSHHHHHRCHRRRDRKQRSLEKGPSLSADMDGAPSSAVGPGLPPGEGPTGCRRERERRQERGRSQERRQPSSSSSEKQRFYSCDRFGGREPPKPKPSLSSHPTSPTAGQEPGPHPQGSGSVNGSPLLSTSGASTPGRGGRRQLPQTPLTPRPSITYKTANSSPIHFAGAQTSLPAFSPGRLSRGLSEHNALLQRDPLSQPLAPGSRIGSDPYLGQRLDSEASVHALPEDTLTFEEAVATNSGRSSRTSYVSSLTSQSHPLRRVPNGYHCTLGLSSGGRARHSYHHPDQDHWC
T1 sequence (P54284 whole entry, further chain): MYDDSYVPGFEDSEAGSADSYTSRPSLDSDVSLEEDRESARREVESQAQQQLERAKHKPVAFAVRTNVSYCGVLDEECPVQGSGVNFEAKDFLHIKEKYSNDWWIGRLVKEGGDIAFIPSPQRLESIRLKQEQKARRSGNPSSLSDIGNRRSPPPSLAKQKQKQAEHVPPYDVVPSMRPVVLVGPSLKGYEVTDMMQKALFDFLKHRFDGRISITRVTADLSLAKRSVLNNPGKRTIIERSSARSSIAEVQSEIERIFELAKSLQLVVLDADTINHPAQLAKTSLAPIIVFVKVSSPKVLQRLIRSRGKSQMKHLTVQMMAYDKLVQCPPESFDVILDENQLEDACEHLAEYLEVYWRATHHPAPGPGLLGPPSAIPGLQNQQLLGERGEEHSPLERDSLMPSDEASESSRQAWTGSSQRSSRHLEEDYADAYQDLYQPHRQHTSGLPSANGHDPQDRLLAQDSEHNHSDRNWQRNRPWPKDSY
T1 sequence (P54289 25-1103, further chain): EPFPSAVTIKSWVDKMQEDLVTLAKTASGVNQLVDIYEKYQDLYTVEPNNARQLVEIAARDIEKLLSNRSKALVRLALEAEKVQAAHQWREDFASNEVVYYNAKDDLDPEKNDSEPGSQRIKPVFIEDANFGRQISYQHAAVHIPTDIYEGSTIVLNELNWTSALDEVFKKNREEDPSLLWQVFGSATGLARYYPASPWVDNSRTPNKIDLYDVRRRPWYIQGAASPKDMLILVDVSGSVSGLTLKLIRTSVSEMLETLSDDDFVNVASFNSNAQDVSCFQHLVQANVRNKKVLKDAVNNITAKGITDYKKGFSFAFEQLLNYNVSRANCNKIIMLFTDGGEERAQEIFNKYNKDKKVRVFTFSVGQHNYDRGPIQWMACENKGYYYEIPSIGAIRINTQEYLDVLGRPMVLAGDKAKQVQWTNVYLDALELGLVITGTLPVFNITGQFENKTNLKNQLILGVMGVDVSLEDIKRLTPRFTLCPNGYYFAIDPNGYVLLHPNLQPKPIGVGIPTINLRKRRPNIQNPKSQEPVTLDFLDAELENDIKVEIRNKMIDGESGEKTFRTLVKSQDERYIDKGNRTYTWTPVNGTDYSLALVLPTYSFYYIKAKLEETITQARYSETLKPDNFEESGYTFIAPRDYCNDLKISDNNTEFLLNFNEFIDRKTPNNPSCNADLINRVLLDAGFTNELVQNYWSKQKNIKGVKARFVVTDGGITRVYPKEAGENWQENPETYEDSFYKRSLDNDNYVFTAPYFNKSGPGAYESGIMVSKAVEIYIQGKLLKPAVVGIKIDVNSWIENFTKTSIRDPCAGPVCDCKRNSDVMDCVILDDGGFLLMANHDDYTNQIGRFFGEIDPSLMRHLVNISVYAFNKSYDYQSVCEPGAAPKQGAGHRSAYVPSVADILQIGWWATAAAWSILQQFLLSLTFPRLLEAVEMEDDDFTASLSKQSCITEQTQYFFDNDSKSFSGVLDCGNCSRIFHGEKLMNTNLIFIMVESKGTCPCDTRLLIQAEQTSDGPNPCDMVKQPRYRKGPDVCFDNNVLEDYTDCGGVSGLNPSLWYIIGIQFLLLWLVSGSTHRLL

| SMILES | inhibition at 3 µM |
| --- | --- |
| Cc1cc(CN(C)C(=O)c2c(-c3ccc(Cl)cc3)c(C)c(C(F)(F)F)n2C(C)C)no1 [Example 107, 3-(4-Chlorophenyl)-1-isopropyl-N,4-dimethyl-N-[(5-methyl-isoxazol-3-yl)-methyl]-5-(trifluoromethyl)-1H-pyrrole-2-carboxylic acid amide] | > 95% |
| Cc1c(-c2ccc(Cl)cc2)c(C(=O)N(C)C(C)C)n(C(C)C)c1C(F)(F)F [Example 108, 3-(4-Chlorophenyl)-N,1-diisopropyl-N,4-dimethyl-5-(trifluoromethyl)-1H-pyrrole-2-carboxylic acid amide] | > 95% |
| Cc1c(-c2ccc(Cl)cc2)c(C(=O)N(C)C(C)C)n(CC(C)C)c1C(F)(F)F [Example 109, 3-(4-Chlorophenyl)-N-isopropyl-N,4-dimethyl-1-(2-methyl-propyl)-5-(trifluoromethyl)-1H-pyrrole-2-carboxylic acid amide] | 75 to 95% |
| Cc1c(-c2ccc(Cl)cc2)c(C(=O)N(C)CCS(C)(=O)=O)n(C(C)C)c1C(F)(F)F [Example 110, 3-(4-Chlorophenyl)-1-isopropyl-N,4-dimethyl-N-(2-methylsulfonyl-ethyl)-5-(trifluoromethyl)-1H-pyrrole-2-carboxylic acid amide] | 75 to 95% |
| Cc1c(-c2ccc(Cl)cc2)c(C(=O)N(C)Cc2ccnn2C)n(C(C)C)c1C(F)(F)F [Example 111, 3-(4-Chlorophenyl)-1-isopropyl-N,4-dimethyl-N-[(2-methyl-2H-pyrazol-3-yl)-methyl]-5-(trifluoromethyl)-1H-pyrrole-2-carboxylic acid amide] | 75 to 95% |
| Cc1c(-c2ccc(Cl)cn2)c(C(=O)N2CCOC(C)(C)C2)n(C(C)C)c1C(F)(F)F [Example 112, [3-(5-Chloro-pyridin-2-yl)-1-isopropyl-4-methyl-5-(trifluoromethyl)-1H-pyrrol-2-yl]-(2,2-dimethyl-morpholin-4-yl)-methanone] | 40 to 75% |
| Cc1cc(CN(C)C(=O)c2c(-c3ccc(Cl)cn3)c(C)c(C(F)(F)F)n2C(C)C)no1 [Example 113, 3-(5-Chloro-pyridin-2-yl)-1-isopropyl-N,4-dimethyl-N-[(5-methyl-isoxazol-3-yl)-methyl]-5-(trifluoromethyl)-1H-pyrrole-2-carboxylic acid amide] | 75 to 95% |
| Cc1c(-c2ccc(Cl)cn2)c(C(=O)N(C)Cc2ccnn2C)n(C(C)C)c1C(F)(F)F [Example 114, 3-(5-Chloro-pyridin-2-yl)-1-isopropyl-N,4-dimethyl-N-[(2-methyl-2H-pyrazol-3-yl)-methyl]-5-(trifluoromethyl)-1H-pyrrole-2-carboxylic acid amide] | 40 to 75% |
| Cc1c(-c2ccc(Cl)cc2)c(C(=O)N(C)C2CCNC2=O)n(C(C)C)c1C(F)(F)F (stereo not drawn) [Example 115, 3-(4-Chlorophenyl)-1-isopropyl-N,4-dimethyl-N-(2-oxo-pyrrolidin-3-yl)-5-(trifluoromethyl)-1H-pyrrole-2-carboxylic acid amide] | 75 to 95% |
| Cc1c(-c2ccc(Cl)cn2)c(C(=O)N(C)CC(C)(C)C(N)=O)n(C(C)C)c1C(F)(F)F [Example 116, N-(2-Carbamoyl-2-methyl-propyl)-3-(5-chloro-pyridin-2-yl)-1-isopropyl-N,4-dimethyl-5-(trifluoromethyl)-1H-pyrrole-2-carboxylic acid amide] | 40 to 75% |
| Cc1c(-c2ccc(Cl)cn2)c(C(=O)N(C)CC(C)(C)C#N)n(C(C)C)c1C(F)(F)F [Example 117, 3-(5-Chloro-pyridin-2-yl)-N-(2-cyano-2-methyl-propyl)-1-isopropyl-N,4-dimethyl-5-(trifluoromethyl)-1H-pyrrole-2-carboxylic acid amide] | 75 to 95% |
| Cc1c(-c2ccc(Cl)cn2)c(C(=O)N(C)CCS(C)(=O)=O)n(C(C)C)c1C(F)(F)F [Example 118, 3-(5-Chloro-pyridin-2-yl)-1-isopropyl-N,4-dimethyl-N-(2-methylsulfonyl-ethyl)-5-(trifluoromethyl)-1H-pyrrole-2-carboxylic acid amide] | 40 to 75% |
| Cc1c(-c2ccc(Cl)cn2)c(C(=O)N(C)C2CCNC2=O)n(C(C)C)c1C(F)(F)F (stereo not drawn) [Example 119, 3-(5-Chloro-pyridin-2-yl)-1-isopropyl-N,4-dimethyl-N-(2-oxo-pyrrolidin-3-yl)-5-(trifluoromethyl)-1H-pyrrole-2-carboxylic acid amide] | 40 to 75% |
| Cc1c(-c2ccc(Cl)cn2)c(C(=O)N(C)C(C)C)n(C(C)C)c1C(F)(F)F [Example 120, 3-(5-Chloro-pyridin-2-yl)-N,1-diisopropyl-N,4-dimethyl-5-(trifluoromethyl)-1H-pyrrole-2-carboxylic acid amide] | 75 to 95% |
| Cc1c(-c2ncc(Cl)cn2)c(C(=O)N2CCOC(C)(C)C2)n(C(C)C)c1C(F)(F)F [Example 121, [3-(5-Chloro-pyrimidin-2-yl)-1-isopropyl-4-methyl-5-(trifluoromethyl)-1H-pyrrol-2-yl]-(2,2-dimethyl-morpholin-4-yl)-methanone] | 40 to 75% |
| Cc1c(-c2ncc(Cl)cn2)c(C(=O)N(C)Cc2ccnn2C)n(C(C)C)c1C(F)(F)F [Example 122, 3-(5-Chloro-pyrimidin-2-yl)-1-isopropyl-N,4-dimethyl-N-[(2-methyl-2H-pyrazol-3-yl)-methyl]-5-(trifluoromethyl)-1H-pyrrole-2-carboxylic acid amide] | 40 to 75% |
| Cc1cc(CN(C)C(=O)c2c(-c3ncc(Cl)cn3)c(C)c(C(F)(F)F)n2C(C)C)no1 [Example 123, 3-(5-Chloro-pyrimidin-2-yl)-1-isopropyl-N,4-dimethyl-N-[(5-methyl-isoxazol-3-yl)-methyl]-5-(trifluoromethyl)-1H-pyrrole-2-carboxylic acid amide] | 75 to 95% |
| Cc1c(-c2ncc(Cl)cn2)c(C(=O)N(C)CC(C)(C)C#N)n(C(C)C)c1C(F)(F)F [Example 126, 3-(5-Chloro-pyrimidin-2-yl)-N-(2-cyano-2-methyl-propyl)-1-isopropyl-N,4-dimethyl-5-(trifluoromethyl)-1H-pyrrole-2-carboxylic acid amide] | 40 to 75% |
| Cc1c(-c2ncc(Cl)cn2)c(C(=O)N(C)CCS(C)(=O)=O)n(C(C)C)c1C(F)(F)F [Example 127, 3-(5-Chloro-pyrimidin-2-yl)-1-isopropyl-N,4-dimethyl-N-(2-methylsulfonyl-ethyl)-5-(trifluoromethyl)-1H-pyrrole-2-carboxylic acid amide] | 30 to 40% |
| Cc1c(-c2ncc(Cl)cn2)c(C(=O)N(C)C(C)C)n(C(C)C)c1C(F)(F)F [Example 128, 3-(5-Chloro-pyrimidin-2-yl)-N,1-diisopropyl-N,4-dimethyl-5-(trifluoromethyl)-1H-pyrrole-2-carboxylic acid amide] | 40 to 75% |
| Cc1c(-c2ccc(Cl)cn2)c(C(=O)N2CCN(C(=O)NC(C)(C)C)CC2)n(C(C)C)c1C(F)(F)F [Example 129, N-tert-Butyl-4-[3-(5-chloro-pyridin-2-yl)-1-isopropyl-4-methyl-5-(trifluoromethyl)-1H-pyrrole-2-carbonyl]-piperazine-1-carboxylic acid amide] | 75 to 95% |
